The source made the active and inactive calls. No cut-off for these calls is given here.
Columns and labels:
[1] = Therapeutic index, ratio of TC50 for cytotoxicity against human HepG2 cells to IC50 for antiplasmodial activity against Plasmodium falciparum 3D7 infected in human red blood cells; format: toxicity, cell-based; conditions: read-out: TI
Plasmodium falciparum [2] = test: Antiplasmodial activity against Plasmodium falciparum 3D7 infected in human red blood cells assessed as inhibition of parasitemia incubated for 48 hrs by giemsa staining based light microscopic analysis; format: functional, organism-based, Red blood cell; conditions: 3D7, Erythrocyte
[3] = Cytotoxicity against human HepG2 cells assessed as reduction in cell viability incubated for 48 hrs by MTT assay; format: toxicity, cell-based; conditions: read-out: TC50
Plasmodium falciparum [4] = test: Inhibition of Plasmodium falciparum plasmepsin X […] at 1 uM using DABCYL-G-PSFVEAPVRGG-EDANS as substrate by fluorescence based assay relative to control
Plasmodium falciparum [5] = test: Antiplasmodial activity against chloroquine resistant Plasmodium falciparum RKL-9 infected in human erythrocytes assessed as inhibition of parasitemia by SYBR green-I fluorescence based spectrofluorometric analysis; format: functional, organism-based; conditions: RKL-9, Erythrocyte
Erythrocyte = test: Hemolytic activity against human red blood cells upto 1600 uM incubated for 1 hrs by hemolysis assay; format: toxicity, cell-based
Plasmodium falciparum [6] = test: Resistance index, ratio of IC50 for antiplasmodial activity against chloroquine-resistant Plasmodium falciparum RKL-9 to IC50 for antiplasmodial activity against Plasmodium falciparum 3D7; format: functional
Plasmodium falciparum [7] = test: Induction of mitochondrial membrane loss in Plasmodium falciparum 3D7 assessed as reduction in red-green ratio at IC50 concentration incubated for 3 hrs by JC-1 staining based spectrofluorometric analysis; format: functional
Plasmodium falciparum [8] = test: Antiplasmodial activity against Plasmodium falciparum 3D7 infected in human erythrocytes assessed as delay in maturation of rings at 1 to 10 uM measured for 56 hrs by giemsa staining based microscopic analysis; format: functional, organism-based; conditions: Erythrocyte, dose 1-10 µM
Plasmodium falciparum [9] = test: Antiplasmodial activity against Plasmodium falciparum 3D7 infected in human erythrocytes assessed as pyknotic trophozoites development at 1 to 10 uM measured for 56 hrs by giemsa staining based microscopic analysis; format: functional, organism-based; conditions: Erythrocyte, dose 1-10 µM
[10] = Inhibition of Plasmodium falciparum Plasmepsin X assessed as inhibition constant using DABCYL-G-PSFVEAPVRGG-EDANS as substrate by fluorescence based assay relative to control
Plasmodium berghei [11] = test: In vivo antimalarial activity against Plasmodium berghei ANKA strain infected in C57BL/6 mouse assessed as increase in mean survival time at 30 mg/kg, ip administered for 4 days and measured upto 30 days (reference value: 13 days); format: functional; conditions: time <= 30 day
Plasmodium falciparum [12] = test: Antiplasmodial activity against Plasmodium falciparum 3D7 infected in human erythrocytes assessed as transition from ring to trophozoite at 1 to 10 uM measured for 56 hrs by giemsa staining based microscopic analysis; format: functional, organism-based; conditions: Erythrocyte, dose 1-10 µM
Plasmodium berghei [13] = test: In vivo antimalarial activity against Plasmodium berghei ANKA strain infected in BALB/c mouse assessed as increase in mean survival time at 50 mg/kg, ip administered for 4 days and measured upto 30 days (reference value: 13 days); format: functional; conditions: time <= 30 day
Plasmodium berghei [14] = test: In vivo antimalarial activity against Plasmodium berghei ANKA infected in BALB/c mouse assessed as reduction in parasitemia at 50 mg/kg, ip administered for 4 consecutive days and measured on day 8 post-infection by geimsa staining based microscopic analysis relative to control; format: functional; design: scale not given: the % may be the effect or the level left; conditions: time 8 day
Plasmodium falciparum [15] = test: Antiplasmodial activity against Plasmodium falciparum 3D7 infected in human erythrocytes assessed as accumulation of parasite growth at late trophozoite stage at 1 to 10 uM measured after 56 hrs post-treatment by giemsa staining based microscopic analysis; format: functional, organism-based; conditions: Erythrocyte, dose 1-10 µM
Plasmodium berghei [16] = test: Antiplasmodial activity against firefly luciferase-expressing Plasmodium berghei liver stage infected in human Huh-7 cells assessed as inhibition of parasite growth preincubated with cells for 1 hrs followed by parasite infection and […] by bioluminescence assay; format: functional, organism-based

IC50 (Plasmodium falciparum [2]) | inhibition (Plasmodium falciparum [4]) | Structure (SMILES) | selectivity ratio [1] | CC50 at 48 h [3] | IC50 (Plasmodium falciparum [5]) | Activity (Erythrocyte) | Ratio IC50 (Plasmodium falciparum [6]) | Ratio (Plasmodium falciparum [7]) | further results
0.2 µM | 24.5% | Cc1ccc(OCC(=O)N[C@@H](Cc2ccccc2)[C@@H](O)CN2CCN(Cc3ccccc3)CC2)cc1 | 1000 | 200 µM |  |  |  |  | 
> 5 µM | 6.85% | O=C(Cc1ccccc1)N[C@@H](Cc1ccccc1)[C@@H](O)CN1CCN(Cc2ccccc2)CC1 | < 61 | 305 µM |  |  |  |  | 
0.97 µM | 38.6% | CN1CCN(Cc2ccc(C(=O)N[C@@H](Cc3ccccc3)[C@@H](O)CN3CCN(Cc4ccccc4)CC3)cc2)CC1 | 887 | 860 µM |  |  |  |  | Ki [10]: 0.91 µM
 |  | C[C@H]1[C@H](OC(=O)CCC(=O)O)O[C@@H]2O[C@@]3(C)CC[C@H]4[C@H](C)CC[C@@H]1[C@@]24OO3 [ARTESUNATE] |  |  |  |  |  |  | MST (Plasmodium berghei [11]): 24 days
0.25 µM | 11.7% | O=C(N[C@@H](Cc1ccccc1)[C@@H](O)CN1CCN(Cc2ccccc2)CC1)c1cnc2ccccc2c1 | 400 | 100 µM |  | Non-Toxic |  |  | 
0.95 µM | 15.5% | CCC(C(=O)N[C@@H](Cc1ccccc1)[C@@H](O)CN1CCN(Cc2ccccc2)CC1)c1ccccc1 (stereo not given in full) | 1420 | 1350 µM |  |  |  |  | 
1.1 µM | 13.7% | O=C(Cc1cccc(C(F)(F)F)c1)N[C@@H](Cc1ccccc1)[C@@H](O)CN1CCN(Cc2ccccc2)CC1 | 900 | 990 µM |  |  |  |  | 
0.51 µM | 21.5% | O=C(CCc1ccc(Br)cc1)N[C@@H](Cc1ccccc1)[C@@H](O)CN1CCN(Cc2ccccc2)CC1 | 252 | 129 µM |  |  |  |  | IC50 (Plasmodium berghei [16]): 3.97 µM
1 µM | 34% | CN1CCN(c2ccc(C(=O)N[C@@H](Cc3ccccc3)[C@@H](O)CN3CCN(Cc4ccccc4)CC3)cc2)CC1 | 189 | 189 µM |  |  |  |  | 

Structure (SMILES) | IC50 (Plasmodium falciparum [2]) | inhibition (Plasmodium falciparum [4]) | selectivity ratio [1] | CC50 at 48 h [3] | IC50 (Plasmodium falciparum [5]) | Activity (Erythrocyte) | Ratio IC50 (Plasmodium falciparum [6]) | Ratio (Plasmodium falciparum [7]) | further results
O=C(N[C@@H](Cc1ccccc1)[C@@H](O)CN1CCN(Cc2ccccc2)CC1)c1cnccn1 | 1.26 µM | 21% | 791 | 1000 µM | 1.26 µM | Non-Toxic | 1 | 4.07 | 
O=C(N[C@@H](Cc1ccccc1)[C@@H](O)CN1CCN(Cc2ccccc2)CC1)c1ccc(F)cc1 | 0.41 µM | 0.92% | 636 | 267 µM | 0.72 µM |  | 1.73 | 3.73 | Activity (Plasmodium falciparum [8]): Active; Activity (Plasmodium falciparum [9]): Active
O=C(N[C@@H](Cc1ccccc1)[C@@H](O)CN1CCN(Cc2ccccc2)CC1)c1ccc(N2CCOCC2)cc1 | 0.21 µM | 28.4% | 1450 | 317 µM | 0.86 µM | Non-Toxic | 3.93 | 3.48 | Activity (Plasmodium falciparum [8]): Active; Activity (Plasmodium falciparum [12]): Active; MST (Plasmodium berghei [13]): 15 days; Activity (Plasmodium berghei [14]): 50%; Activity (Plasmodium falciparum [9]): Active; Activity (Plasmodium falciparum [15]): Active
Cc1cnc(C(=O)N[C@@H](Cc2ccccc2)[C@@H](O)CN2CCN(Cc3ccccc3)CC2)cn1 | 1.22 µM | 8.79% | 232 | 285 µM | 0.79 µM | Non-Toxic | 0.65 | 4.28 | 
